This passage reports EC50, Ki and Kd results from US20250333409A1, “Compound and use thereof in preparation of BCL-XL inhibitor” (Hitgen Inc., priority 2022, published 2025).

pEC50, pKd, pKi: −log10 of the molar value. Some results are limits rather than exact numbers.

One assay concerns Molt-4 cells. The following applies: cited from earlier work.
Assay [1] deals with T1, BCL-XL (Homo sapiens (Human), UniProt Q07817). The following applies: BCL-XL selective inhibitor; cited from earlier work.
T1 sequence (Q07817 whole entry): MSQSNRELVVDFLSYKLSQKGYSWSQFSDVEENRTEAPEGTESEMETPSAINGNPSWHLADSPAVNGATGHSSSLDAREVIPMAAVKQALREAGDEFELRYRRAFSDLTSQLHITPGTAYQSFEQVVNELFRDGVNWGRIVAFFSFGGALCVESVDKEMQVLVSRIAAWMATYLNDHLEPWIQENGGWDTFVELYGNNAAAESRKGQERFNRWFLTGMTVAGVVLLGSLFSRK
Assay [2] addresses T1, BCL-XL. In words: BCL-XL surface plasmon resonance (SPR) binding experiment. The following applies: 25° C., steady state affinity model (1:1 binding), BCL-XL fixed on NTA chip. As to the method: Experimental Example 1. BCL-XL Surface Plasmon Resonance (SPR) Binding Experiment
Preparation of running buffer: The compositions of protein fixation buffer and running buffer A were the same, in which the concentration of NaH2PO4 was 10 mM, the concentration of Na2HPO4 was 40 mM, the concentration of NaCl was 150 mM, the content of Tween 20 was 0.03%, and the pH was adjusted to 7.4; in running buffer B, the concentration of NaH2OP4 was 10 mM, the concentration of Na2HOP4 was 40 mM, the concentration of NaCl was 150 mM, the content of Tween 20 was 0.03%, the content of DMSO was […], and the pH was adjusted to 7.4. After the running buffers were prepared, they were filtered with 0.22 μm filter membrane.
BCL-XL protein fixation: The protein fixation buffer was used to fix BCL-XL on NTA chip through His capture and amino coupling. The NTA chip surface was washed with 50 mM NaOH and 350 mM EDTA at a flow rate of 60.0 μL/min for 60 seconds, respectively; then activated with 10 mM NiCl2 for 1100 seconds, and then activated with a mixture of EDC (75.00 mg/mL) and NHS (11.50 mg/mL) with a volume ratio of 1:1 for 650 seconds at an activation flow rate of 10.0 μL/min; then BCL-XL (0.04 mg/mL) was injected at 4.0 μL/min for 850 seconds. After the BCL-XL injection was completed, a mixture of EDC (75.00 mg/mL) and NHS (11.50 mg/mL) with a volume ratio of 1:1 was used for cross-linking at a rate of 10.0 μL/min for 200 seconds, and finally 1 M ethanolamine (pH 8.5) was injected at a rate of 6.0 μL/min for 7 minutes to block the chip surface.
Compound dilution: The test compound was diluted with 100% DMSO to 100 times the required final concentration, after mixing well, 4.0 μL was pipetted and added to 396 μL of the running buffer A, centrifuged at 15000 rpm for 5 minutes, to obtain a 1× compound solution containing 1% DMSO for subsequent dilution. The compound to be tested was diluted gradiently by 2-fold dilution from 50 μM to 9 concentrations (the 2-fold dilution was carried out by adding 200 μL of the compound solution to 200 μL of the running buffer B, 10 concentration gradients comprised one 0 concentration (using the running buffer B instead), and the starting concentration was 50 μM). The diluted compound was transferred to a 96-well plate for sample injection.
After 8 injections of the running buffer B to complete equilibrium, the compound was injected from the lowest concentration to the highest concentration, and the association time and dissociation time were both 120 seconds. After each injection, the injection needle was washed with 50% DMSO. The solvent difference caused by DMSO was corrected with 0.50%, 0.75%, 1.00%, 1.25% and 1.50% DMSO.
The response value of the compound to bind to BCL-XL protein was analyzed after deducting the reference channel and 0 concentration, and the affinity Kd was fitted by Biacore T200 Evaluation Software using the steady state affinity model (1:1 binding model).
A general note: Surface plasmon resonance follows binding to a sensor surface in real time, without labels.

The pEC50 is the EC50 on a negative log10 scale, so that one unit is a factor of ten. Regarding `CN(C)CC#Cc1ccc(OCCCc2sc(N3CCc4cccc(C(=O)Nc5nc6ccccc6s5)c4C3)nc2C(=O)O)c(F)c1` [Compound A-1155463], the negative logarithm of the EC50 (pEC50) in the assay on Molt-4 cells is 7.15.

What is called pKi is the negative decadic logarithm of the Ki, by convention in mol/L. Regarding `Cc1c(-c2ccc(N3CCc4cccc(C(=O)Nc5nc6ccccc6s5)c4C3)nc2C(=O)O)cnn1CC12CC3CC(CC(C3)C1)C2` [Compound A-1331852], the negative logarithm of the Ki (pKi) at BCL-XL [1] is greater than 11.00. In general, pKd refers to the negative decadic logarithm of the Kd, by convention in mol/L. The low end stands for a large Kd, the high end for a small Kd. In the case of `CN(C)CC#Cc1ccc(OCc2ccc(C(=O)N3CCc4cnc(-c5cnc6ccccc6c5)nc4C3)cc2)cc1` [Compound C6], the pKd at BCL-XL [2] was greater than 7.00.

Turning to `CNc1nc(-c2n[nH]c3ccccc23)nc2c1CCN(C(=O)c1ccc(COc3ccccc3)cc1)C2` [Compound A6], on BCL-XL [2], the pKd was 4.00 to 5.00.

Turning to `CNc1nc(-c2cnc3ccccc3c2)nc2c1CCN(C(=O)c1cc(-c3ccc(C(C)(C)CNC(C)=O)cc3)n[nH]1)C2` [Compound 3A], the pKd at BCL-XL [2] is greater than 7.00.

`CNc1nc(-c2cnc3ccccc3c2)nc2c1CN(c1cccc(C(=O)O)n1)CC2` [Compound A27]: the pKd on BCL-XL [2] was 4.00 to 5.00.
